These results are taken from the NIST ThermoML archive (doi:10.1021/je0502391).

Numbers after ± are expanded uncertainties.

The conditions of this series: 298.15 K; 101.33 kPa; Liquid.

For the molecule `CCCCCCCCCCCC` [dodecane], the mass density (in general, the mass of a sample divided by its volume) is reported as 745.41 ± 0.78 kg/m3. On to `CO` [methanol], for which the mass density is reported as 786.62 ± 0.31 kg/m3. In the case of `Cc1ccccc1` [toluene], the mass density came out at 862.35 ± 0.24 kg/m3. Consider `C=C1CC[C@H]2C[C@@H]1C2(C)C` [(1S,5S)-6,6-dimethyl-2-methylenebicyclo[3.1.1]heptane], for which the mass density came out at 866.84 ± 0.62 kg/m3.

As to `CC1=CC[C@H]2C[C@@H]1C2(C)C` [(S)-2-pinene], the mass density is listed as 853.88 ± 0.63 kg/m3. Regarding `C=C(C)[C@H]1CC=C(C)CC1` [(R)-1-methyl-4-(1-methylethenyl)cyclohexene], the mass density was 837.31 ± 1.3 kg/m3.
